Source: patent publication US20240059738A1, “SWITCHING PEPTIDE AND MULTIPLEX IMMUNOASSAY METHOD USING SAME” (OPTOLANE TECHNOLOGIES INC., priority 2021, published 2024)

Tests used:
[1] = Net charge of switching peptides at pH 6.0 to 8.0; format: physicochemical
Method: Regarding the antibody binding properties of the switching peptides at pH 6.0 to 8.0, a net charge of H1 and L2 peptides decreased to 0.5 at pH 6.0 to 7.0 due to a histidine residue with a pKa value of 6.02. In addition, the net charge of the H2 and L2 peptides decreased to 0.5 at pH 7.0 to 8.0 due to a cysteine residue with a pKa value of 8.18. […] Therefore, the immunoassay was performed by selecting an L1 peptide having specific dissociation from hepatitis B surface antigen-antibody binding and stability within a pH range of human serum immunoassay.

Anti-hCG antibody(m) = test: Antigen-induced release of fluorescently labeled peptide from immobilized antibody (Table 2), hCG antigen; format: binding; details: anti-hCG antibody (mouse)
Anti-HBsAg antibody(g) = test: Antigen-induced release of fluorescently labeled peptide from immobilized antibody (Table 2), HBsAg antigen; format: binding, goat; details: for fluorescence intensity remaining at bottom of plate after antigen (% of before): anti-HBsAg antibodies from goats; for Bottom (B) of microplate Change (%) / fluorescence intensity Bottom (B) of microplate After antigen binding / fluorescence intensity Bottom (B) of microplate Before antigen binding / fluorescence intensity In solution (S) After antigen binding / fluorescence intensity In solution (S) Before antigen binding: anti-HBsAg antibody (goat), HBsAg
[2] = test system: anti-HRP antibody from a rabbit; test: One-step immunoassay with varying HRP concentration (FIGS. 7A-7C); format: binding; details: HRP 0.3 to 100 μM; for Kd: estimated, read-out: Equilibrium dissociation constants
Excerpt: FIG. 7A is a schematic diagram for explaining an immunoassay method using fluorescently labeled peptide compounds of Example 1, and FIGS. 7B and 7C are graphs illustrating the fluorescence intensities in a solution and at a bottom of the microplate depending on a concentration of the antigen measured by the immunoassay method illustrated in FIG. 7A. In this experiment, an anti-HRP antibody from a rabbit immobilized on a microplate was used as the binding antibody and HRP was used as the antigen.

Anti-CRP antibody(r) = test: Antigen-induced release of fluorescently labeled peptide from immobilized antibody (Table 2), CRP antigen; format: binding; details: anti-CRP antibody (rabbit)
Anti-HRP antibody(r) = test: Antigen-induced release of fluorescently labeled peptide from immobilized antibody (Table 2), HRP antigen; format: binding, rabbit; details: for remaining fluorescence intensity at plate bottom after antigen binding (% of before): anti-HRP antibodies from rabbits; for Bottom (B) of microplate Change (%) / fluorescence intensity Bottom (B) of microplate After antigen binding / fluorescence intensity Bottom (B) of microplate Before antigen binding / fluorescence intensity In solution (S) After antigen binding / fluorescence intensity In solution (S) Before antigen binding: anti-HRP antibody (rabbit), HRP
[3] = test system: rabbit anti-HRP antibodies (Fab region); test: Papain treatment of immobilized antibody with bound fluorescently labeled switching peptide (FIG. 6B); format: binding; details: after papain treatment compared to before
Excerpt: FIG. 6A is a schematic diagram illustrating states before and after treatment of the antibody to which the four types of peptides of Example 1 were bound, respectively, with papain, which is a protease, and FIG. 6B is graphs illustrating a fluorescence intensity measured at a bottom (B) of the microplate and in a solution (S) after the papain treatment. In the case of this experiment, after immobilization of the antibodies (rabbit anti-HRP antibodies) on the microplate, binding between the antibody and the switching peptide was induced by treatment with a fluorescently labeled switching peptide, the unbound switching peptide was removed, and then the Fab region was hydrolyzed from the immobilized antibodies by adding papain, which is a protease.
Referring to FIG. 6A, the fluorescence at the bottom (B) of the microplate is expected to decrease after the papain reaction because the fluorescently labeled switching peptides are bound to the Fab region of antibodies, and the fluorescence in the solution is expected to increase because the Fab region to which the switching peptide is bound is hydrolyzed and dissolved into the solution. This prediction is proven to be true from the graphs of FIG. 6B.

[4] = pH 7.0 to 8.0, cysteine residue pKa 8.18

Row | Sequence | net charge [1, 4] | Bottom (B) of microplate Change (%) (Anti-hCG antibody(m)) | In solution (S) Change (%) (Anti-hCG antibody(m)) | fluorescence intensity Bottom (B) of microplate After antigen binding (Anti-hCG antibody(m)) | fluorescence intensity Bottom (B) of microplate Before antigen binding (Anti-hCG antibody(m)) | fluorescence intensity In solution (S) After antigen binding (Anti-hCG antibody(m)) | fluorescence intensity In solution (S) Before antigen binding (Anti-hCG antibody(m)) | fluorescence intensity remaining at bottom of plate after antigen (% of before) (Anti-HBsAg antibody(g)) [%] | Bottom (B) of microplate Change (%) (Anti-HBsAg antibody(g)) | fluorescence intensity Bottom (B) of microplate After antigen binding (Anti-HBsAg antibody(g)) | fluorescence intensity Bottom (B) of microplate Before antigen binding (Anti-HBsAg antibody(g)) | fluorescence intensity In solution (S) After antigen binding (Anti-HBsAg antibody(g)) | fluorescence intensity In solution (S) Before antigen binding (Anti-HBsAg antibody(g)) | fluorescence intensity in the solution depending on the concentration of the antigen (HRP) [2] | Kd [2] [µM] | Bottom (B) of microplate Change (%) (Anti-CRP antibody(r)) | In solution (S) Change (%) (Anti-CRP antibody(r)) | fluorescence intensity Bottom (B) of microplate After antigen binding (Anti-CRP antibody(r)) | fluorescence intensity Bottom (B) of microplate Before antigen binding (Anti-CRP antibody(r)) | fluorescence intensity In solution (S) After antigen binding (Anti-CRP antibody(r)) | also measured
1 | VYYCAREPTGTGIYFDVWGK [H2, VYYCA REPTG TGIYF DVWGK] | 0.5 | −88.5 | +416% | 23320 | 23320 | 8545 | 1654 | 63.9 | −36.1 | 18773 | 29367 | 9136 | 1784 | increase | 3.11 | −39.5 | +677% | 22205 | 22205 | 16311 | fluorescence intensity In solution (S) Before antigen binding (Anti-CRP antibody(r)): 2099; remaining fluorescence intensity at plate bottom after antigen binding (% of before) (Anti-HRP antibody(r)): 14.8%; Bottom (B) of microplate Change (%) (Anti-HRP antibody(r)): −85.2%; fluorescence intensity Bottom (B) of microplate After antigen binding (Anti-HRP antibody(r)): 1806; fluorescence intensity Bottom (B) of microplate Before antigen binding (Anti-HRP antibody(r)): 122230; fluorescence intensity In solution (S) After antigen binding (Anti-HRP antibody(r)): 18128; fluorescence intensity In solution (S) Before antigen binding (Anti-HRP antibody(r)): 2272; decrease of fluorescence intensity at the bottom of the microplate [3]: 58.7%; increase of fluorescence intensity in the solution [3]: 2,356%
2 | VYYCFQGSHVPFTK [L2, VYYCF QGSHV PFTK] | 0.5 | −90.7 | +456% | 3072 | 33156 | 9402 | 1692 | 35.2 | −64.8 | 9856 | 28002 | 15359 | 2279 | increase | 1.48 | −44.9 | +883% | 11236 | 20394 | 32187 | net charge ([1]; pH 6.0 to 7.0, histidine residue pKa 6.02): 0.5; fluorescence intensity In solution (S) Before antigen binding (Anti-CRP antibody(r)): 3274; remaining fluorescence intensity at plate bottom after antigen binding (% of before) (Anti-HRP antibody(r)): 25.5%; Bottom (B) of microplate Change (%) (Anti-HRP antibody(r)): −74.5%; fluorescence intensity Bottom (B) of microplate After antigen binding (Anti-HRP antibody(r)): 3208; fluorescence intensity Bottom (B) of microplate Before antigen binding (Anti-HRP antibody(r)): 12584; fluorescence intensity In solution (S) After antigen binding (Anti-HRP antibody(r)): 16135; fluorescence intensity In solution (S) Before antigen binding (Anti-HRP antibody(r)): 2315; decrease of fluorescence intensity at the bottom of the microplate [3]: 72.5%; increase of fluorescence intensity in the solution [3]: 2,452%
